Source: ChEMBL document CHEMBL4699540, “Discovery and structure activity relationships of 7-benzyl triazolopyridines as stable, selective, and reversible inhibitors of myeloperoxidase” (Bioorg Med Chem, 2020)

Assays:
Myeloperoxidase [1] = target: T1, Myeloperoxidase (Homo sapiens, UniProt P05164); assay: Inhibition of recombinant human MPO incubated for 10 mins in presence of 240 mM NaCl and 10 uM H2O2 by aminophenyl fluorescein based assay
T1 sequence (P05164 whole entry): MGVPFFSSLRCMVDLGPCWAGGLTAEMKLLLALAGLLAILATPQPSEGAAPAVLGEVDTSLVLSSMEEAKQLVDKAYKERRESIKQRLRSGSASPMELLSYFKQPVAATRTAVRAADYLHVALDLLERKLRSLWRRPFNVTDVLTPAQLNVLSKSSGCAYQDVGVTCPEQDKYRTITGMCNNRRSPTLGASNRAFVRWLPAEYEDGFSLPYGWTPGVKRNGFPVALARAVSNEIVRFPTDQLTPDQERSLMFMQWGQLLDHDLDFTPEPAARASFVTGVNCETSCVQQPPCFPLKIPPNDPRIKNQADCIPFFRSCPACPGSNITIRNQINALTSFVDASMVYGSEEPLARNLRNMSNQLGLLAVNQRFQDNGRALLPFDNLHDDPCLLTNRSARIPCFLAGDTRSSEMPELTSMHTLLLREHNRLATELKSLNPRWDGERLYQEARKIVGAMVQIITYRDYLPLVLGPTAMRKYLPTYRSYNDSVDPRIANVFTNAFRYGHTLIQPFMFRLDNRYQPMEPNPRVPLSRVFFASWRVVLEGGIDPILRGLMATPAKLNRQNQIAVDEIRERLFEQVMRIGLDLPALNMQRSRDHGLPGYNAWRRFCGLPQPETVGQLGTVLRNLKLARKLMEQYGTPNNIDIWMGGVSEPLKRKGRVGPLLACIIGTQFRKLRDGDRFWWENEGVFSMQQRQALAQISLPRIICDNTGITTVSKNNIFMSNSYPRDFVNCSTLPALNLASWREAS

Myeloperoxidase [2] = target: T1, Myeloperoxidase; assay: Inhibition of recombinant human MPO incubated for 10 mins by amplex red dye based assay
[3] = Permeability of compound at pH 7.4 by PAMPA assay; format: ADME; details: read-out: permeability
[4] = Dissociation constant, pKa of the compound; format: physicochemical
[5] = Metabolic stability in human liver microsomes assessed as compound remaining; format: ADME, Microsome
[6] = Metabolic stability in mouse liver microsomes assessed as compound remaining; format: ADME, Microsome
[7] = target: T2, Methylated-DNA--protein-cysteine methyltransferase (Homo sapiens, UniProt P16455); assay: Inhibition of human MGMT using 06-benzylguanine as substrate incubated for 30 mins by LC/MS analysis; details: 0.5 h
T2 sequence (P16455 whole entry): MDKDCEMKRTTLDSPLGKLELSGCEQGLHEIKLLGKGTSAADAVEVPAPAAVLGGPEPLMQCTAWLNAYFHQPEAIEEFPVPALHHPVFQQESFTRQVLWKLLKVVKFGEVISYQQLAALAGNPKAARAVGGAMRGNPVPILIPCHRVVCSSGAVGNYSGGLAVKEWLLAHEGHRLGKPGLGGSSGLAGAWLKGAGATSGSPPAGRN

[8] = Stability of compound at pH 1 assessed as half life; format: physicochemical; details: buffer
Cytochrome P450 3A4 = Cytochrome P450 3A4 (Homo sapiens, UniProt P08684); assay: Inhibition of CYP3A4 (unknown origin); format: ADME
Thyroid peroxidase = target: T3, Thyroid peroxidase (Homo sapiens, UniProt P07202); assay: Inhibition of TPO (unknown origin) using 3-iodo tyrosine as substrate incubated for 10 mins
T3 sequence (P07202 whole entry): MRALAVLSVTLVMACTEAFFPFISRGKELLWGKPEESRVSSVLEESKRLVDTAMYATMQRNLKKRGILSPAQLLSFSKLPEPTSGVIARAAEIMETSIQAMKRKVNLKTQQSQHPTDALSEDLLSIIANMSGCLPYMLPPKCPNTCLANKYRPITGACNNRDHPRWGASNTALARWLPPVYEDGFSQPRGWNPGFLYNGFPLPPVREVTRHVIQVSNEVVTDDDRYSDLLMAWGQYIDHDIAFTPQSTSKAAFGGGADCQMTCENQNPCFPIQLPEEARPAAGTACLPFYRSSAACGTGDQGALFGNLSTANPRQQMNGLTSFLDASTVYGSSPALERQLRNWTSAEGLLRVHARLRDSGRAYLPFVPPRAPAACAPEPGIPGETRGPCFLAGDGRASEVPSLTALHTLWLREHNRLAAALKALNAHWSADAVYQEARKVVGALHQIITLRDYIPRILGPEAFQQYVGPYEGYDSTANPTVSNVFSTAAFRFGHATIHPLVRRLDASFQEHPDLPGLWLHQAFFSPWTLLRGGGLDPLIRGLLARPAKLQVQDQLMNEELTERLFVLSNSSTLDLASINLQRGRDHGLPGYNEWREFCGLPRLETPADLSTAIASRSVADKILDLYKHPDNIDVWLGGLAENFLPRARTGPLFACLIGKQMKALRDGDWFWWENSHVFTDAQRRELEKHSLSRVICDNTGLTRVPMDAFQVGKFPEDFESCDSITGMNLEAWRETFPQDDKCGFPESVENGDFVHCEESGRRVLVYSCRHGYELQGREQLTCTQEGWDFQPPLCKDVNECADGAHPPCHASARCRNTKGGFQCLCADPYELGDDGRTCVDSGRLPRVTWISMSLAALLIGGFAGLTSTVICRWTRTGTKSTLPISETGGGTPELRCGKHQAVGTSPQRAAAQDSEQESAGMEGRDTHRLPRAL

Cytochrome P450 3A4, sequence (P08684 whole entry): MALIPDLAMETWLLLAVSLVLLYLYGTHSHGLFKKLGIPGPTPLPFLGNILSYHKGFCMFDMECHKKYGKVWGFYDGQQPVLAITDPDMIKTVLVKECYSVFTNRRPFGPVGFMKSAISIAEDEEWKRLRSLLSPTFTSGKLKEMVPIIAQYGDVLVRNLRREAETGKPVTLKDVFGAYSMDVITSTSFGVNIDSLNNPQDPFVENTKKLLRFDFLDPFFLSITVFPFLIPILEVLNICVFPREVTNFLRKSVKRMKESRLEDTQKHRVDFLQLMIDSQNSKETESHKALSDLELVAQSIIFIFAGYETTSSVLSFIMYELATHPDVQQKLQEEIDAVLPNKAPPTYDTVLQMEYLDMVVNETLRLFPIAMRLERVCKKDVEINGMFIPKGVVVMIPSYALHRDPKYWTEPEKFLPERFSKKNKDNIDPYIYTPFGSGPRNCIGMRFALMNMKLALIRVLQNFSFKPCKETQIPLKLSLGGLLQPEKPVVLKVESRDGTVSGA

Nc1nc(CCc2ccccc2)c2nn[nH]c2n1
IC50 (Myeloperoxidase [1]): 7450 nM
IC50 (Myeloperoxidase [2]): 9840 nM

Nc1cc(C(CCNC23CCC(c4ccccc4)(CC2)OC3)c2ccccc2)c2nn[nH]c2n1 (centres undefined)
Papp [3]: 10.4 ×10⁻⁶ cm/s

Nc1nc(NCc2ccccc2)c2nn[nH]c2n1
IC50 (Myeloperoxidase [1]): > 40000 nM
IC50 (Myeloperoxidase [2]): > 40000 nM
pKa [4]: 7.8

Nc1cc([C@H](CCN(CCF)C23CCC(c4ccccc4)(CC2)CC3)c2ccccc2)c2nn[nH]c2n1
Papp [3]: 21.7 ×10⁻⁶ cm/s

Nc1cc([C@H](CCNC23CCC(c4ccccc4)(CC2)CC3)c2ccccc2)c2nn[nH]c2n1
Stabilty [5]: 91%
Stabilty [6]: 85%
Papp [3]: 1.7 ×10⁻⁶ cm/s

Nc1cc([C@H](CCN[C@@H]2CC[C@@H](c3ccccc3)c3ccccc32)c2ccccc2)c2nn[nH]c2n1
Stabilty [5]: 9%
Stabilty [6]: 10%

CN(CC[C@H](c1ccccc1)c1cc(N)nc2[nH]nnc12)C12CCC(c3ccccc3)(CC1)CC2
Papp [3]: 0.1 ×10⁻⁶ cm/s

Nc1nc(Cc2ccccc2)c2nn[nH]c2n1
IC50 (Myeloperoxidase [1]): 110 nM
IC50 (Myeloperoxidase [2]): 428 nM
inhibition (INH) [7]: Not Active
half-life [8]: 16 h
pKa [4]: 6.3

Nc1cc([C@H](CCN[C@H]2CCc3ccccc32)c2ccccc2)c2nn[nH]c2n1
Stabilty [5]: 65%
Stabilty [6]: 51%
Papp [3]: 6.5 ×10⁻⁶ cm/s

Nc1cc([C@H](CCN[C@H]2CC[C@H](c3ccccc3)CC2)c2ccccc2)c2nn[nH]c2n1
Stabilty [5]: 80%
Stabilty [6]: 79%

Nc1cc([C@H](CCN[C@@H]2CC[C@@H](c3ccccc3)OC2)c2ccccc2)c2nn[nH]c2n1
Papp [3]: 3.7 ×10⁻⁶ cm/s

Nc1cc(OCc2ccccc2)c2nn[nH]c2n1
inhibition (INH) [7]: Active
half-life [8]: > 100 h

Nc1cc(Cc2ccc(Cl)cc2)c2nn[nH]c2n1
IC50 (Myeloperoxidase [1]): 1700 nM
IC50 (Myeloperoxidase [2]): 9300 nM

Nc1cc(Cc2cccc(Cl)c2)c2nn[nH]c2n1
IC50 (Myeloperoxidase [1]): 16 nM
IC50 (Myeloperoxidase [2]): 32 nM

COC(=O)c1cccc(Cc2cc(N)nc3[nH]nnc23)c1
IC50 (Myeloperoxidase [1]): 29 nM
IC50 (Myeloperoxidase [2]): 17 nM

CN(Cc1ccccc1)c1nc(N)nc2[nH]nnc12
IC50 (Myeloperoxidase [1]): > 40000 nM
IC50 (Myeloperoxidase [2]): > 40000 nM

Nc1cc([C@H](CCNCc2ccccc2)c2ccccc2)c2nn[nH]c2n1
Stabilty [5]: 88%
Stabilty [6]: 85%
Papp [3]: 4.3 ×10⁻⁶ cm/s
IC50 (Cytochrome P450 3A4): 12000 nM
IC50 (Thyroid peroxidase): > 50000 nM

Nc1cc([C@H](CCN[C@@H]2CC[C@@H](c3ccccc3)C2)c2ccccc2)c2nn[nH]c2n1
Stabilty [5]: 73%
Stabilty [6]: 45%
Papp [3]: 2.4 ×10⁻⁶ cm/s

Nc1cc(Cc2cccc(-c3ccccc3)c2)c2nn[nH]c2n1
IC50 (Myeloperoxidase [1]): 127 nM
IC50 (Myeloperoxidase [2]): 77 nM

Nc1cc(Cc2cccc(C(F)(F)F)c2)c2nn[nH]c2n1
IC50 (Myeloperoxidase [1]): 683 nM
IC50 (Myeloperoxidase [2]): 1430 nM

Nc1cc([C@H](CCNCc2ccccc2C(F)(F)F)c2ccccc2)c2nn[nH]c2n1
Stabilty [5]: 2%
Stabilty [6]: 3%
Papp [3]: 23.7 ×10⁻⁶ cm/s

Nc1cc([C@H](CCCc2ccccc2)c2ccccc2)c2nn[nH]c2n1
Stabilty [5]: 31%
Stabilty [6]: 1%
Papp [3]: 125 ×10⁻⁶ cm/s
IC50 (Cytochrome P450 3A4): 1800 nM

Nc1cc([C@H](Cc2ccccc2)c2ccccc2)c2nn[nH]c2n1
Stabilty [5]: 84%
Stabilty [6]: 53%
Papp [3]: 64.8 ×10⁻⁶ cm/s
IC50 (Cytochrome P450 3A4): 3400 nM

Nc1cc([C@H](CCN[C@H]2C[C@@H](c3ccccc3)c3ccccc32)c2ccccc2)c2nn[nH]c2n1
Stabilty [5]: 35%
Stabilty [6]: 28%

Nc1cc(Cc2ccc3ccccc3c2)c2nn[nH]c2n1
IC50 (Myeloperoxidase [1]): 57 nM
IC50 (Myeloperoxidase [2]): 188 nM

Nc1cc([C@H](CCCN2CCC(c3ccccc3)CC2)c2ccccc2)c2nn[nH]c2n1
Papp [3]: 1.3 ×10⁻⁶ cm/s

Nc1cc(Cc2ccccc2F)c2nn[nH]c2n1
IC50 (Myeloperoxidase [1]): 32 nM
IC50 (Myeloperoxidase [2]): 46 nM

Nc1cc([C@H](CCOCc2ccccc2)c2ccccc2)c2nn[nH]c2n1
Stabilty [5]: 2%
Stabilty [6]: 1%
Papp [3]: 73 ×10⁻⁶ cm/s
IC50 (Cytochrome P450 3A4): 2600 nM
IC50 (Thyroid peroxidase): 6300 nM
